Among the test systems are SK-MEL-2 melanoma; CCRF-CEM leukemia; OVCAR-5 ovarian; BT-549 breast; HCT-116 colon; COLO 205 colon; SF-268 CNS; UO-31 renal; HS 578T breast; A549 NSCLC.
Common to all, as to assay: NCI anticancer screen, dose series, 48 h

Here are results for 11 molecules from PubChem BioAssay (NCI).

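Five compound concentrations were applied to cells in 96-well plates for 48 hours; endpoints were derived by simple linear interpolation of the resulting dose-response curve. GI50 is the concentration that inhibits growth by half. At the TGI there is no net growth.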 A value given as a limit tells only on which side of the number the result lay.

For `COc1cc2c3c(n(CCCBr)c(=O)c2cc1OC)-c1ccc(F)cc1C3=O`, the GI50 was 23 µM with SK-MEL-2 melanoma; 1.99 µM in the assay on CCRF-CEM leukemia; 50 µM with OVCAR-5 ovarian; 13.9 µM with BT-549 breast; 5.72 µM in the assay with HCT-116 colon; 33.4 µM in the assay with COLO 205 colon. In addition, the GI50 in the assay with SF-268 CNS is 10.4 µM; in the assay with UO-31 renal, 5.57 µM; in the assay with HS 578T breast, 32 µM; in the assay with A549 NSCLC, 36.8 µM. Moreover, the TGI in the assay on SK-MEL-2 melanoma is 80.6 µM; with CCRF-CEM leukemia, 8.94 µM; in the assay with OVCAR-5 ovarian, > 100 µM; in the assay with BT-549 breast, 49.7 µM; with HCT-116 colon, 30.6 µM; in the assay with COLO 205 colon, > 100 µM. Moreover, the TGI in the assay on SF-268 CNS is > 100 µM; in the assay with UO-31 renal, 60.4 µM; with HS 578T breast, > 100 µM; in the assay on A549 NSCLC, > 100 µM.
On to `COc1cccc(CCC(=O)c2cc3c(N)c(C(=O)Nc4cccc(Cl)c4C)sc3nc2C)c1`, for which the GI50 with SK-MEL-2 melanoma is 1.36 µM; in the assay on CCRF-CEM leukemia, 0.437 µM; with OVCAR-5 ovarian, 2.68 µM; with BT-549 breast it was 0.951 µM; with HCT-116 colon it was 0.448 µM; with COLO 205 colon it was 0.661 µM. Besides, the GI50 in the assay with SF-268 CNS is 0.814 µM; in the assay with UO-31 renal, 0.86 µM; with HS 578T breast, 0.343 µM; in the assay with A549 NSCLC it was 0.687 µM. Further, the TGI in the assay on SK-MEL-2 melanoma is > 100 µM; in the assay on CCRF-CEM leukemia it was > 100 µM; in the assay on OVCAR-5 ovarian, > 100 µM; in the assay on BT-549 breast it was 99.6 µM; in the assay on HCT-116 colon it was > 100 µM; in the assay with COLO 205 colon it was > 45.9 µM. Besides, the TGI with SF-268 CNS, in the assay with UO-31 renal and in the assay with A549 NSCLC was > 100 µM each time.
In the case of `FC(F)(F)c1cccc2c(SCCc3n[nH]c(=S)o3)ccnc12`, the GI50 is 25.4 µM with SK-MEL-2 melanoma; 38.6 µM with CCRF-CEM leukemia; 97.6 µM with OVCAR-5 ovarian; 30 µM with BT-549 breast; 44.4 µM with HCT-116 colon; 64.8 µM in the assay with COLO 205 colon. The GI50 in the assay on SF-268 CNS is 85.6 µM; in the assay with UO-31 renal, 25.4 µM; in the assay with HS 578T breast it was 30.1 µM; in the assay with A549 NSCLC it was 51.6 µM. Besides, the TGI in the assay with SK-MEL-2 melanoma was 82.6 µM; in the assay on CCRF-CEM leukemia, > 100 µM; in the assay on OVCAR-5 ovarian it was > 100 µM; in the assay on BT-549 breast, > 100 µM; in the assay with HCT-116 colon it was > 100 µM; with COLO 205 colon it was > 100 µM. Also, the TGI in the assay with SF-268 CNS, with UO-31 renal, in the assay with HS 578T breast and in the assay with A549 NSCLC was > 100 µM each time.
In the case of `O=C(CNc1ccc2c(=S)c3ccccc3[nH]c2c1)Nc1ccccc1-c1ccccc1NC(=O)CNc1ccc2c(=S)c3ccccc3[nH]c2c1`, the TGI with SK-MEL-2 melanoma was 34.4 µM; in the assay on CCRF-CEM leukemia, 22.8 µM; with OVCAR-5 ovarian, 53.5 µM; in the assay with BT-549 breast it was 56.7 µM; in the assay on HCT-116 colon, 43.3 µM; with COLO 205 colon, 35.8 µM. Further, the TGI in the assay on SF-268 CNS is 52.8 µM; with UO-31 renal, 31.4 µM; in the assay on HS 578T breast, > 77.7 µM; with A549 NSCLC, 55.5 µM.
For `COc1ccc2c(c1)c(-c1ccc(-c3cn(C)c4ccc(OC)cc34)[nH]1)cn2C`, the GI50 in the assay on SK-MEL-2 melanoma is 4 µM; in the assay with CCRF-CEM leukemia, 2.03 µM; in the assay on OVCAR-5 ovarian, 3.11 µM; with BT-549 breast, 2.09 µM; in the assay with HCT-116 colon, 3.04 µM; in the assay with COLO 205 colon it was 1.92 µM. Besides, the GI50 in the assay with SF-268 CNS was 3.45 µM; in the assay with UO-31 renal it was 1.42 µM; in the assay on HS 578T breast it was 1.36 µM; in the assay with A549 NSCLC, 4.04 µM. Besides, the TGI in the assay with SK-MEL-2 melanoma is 22.2 µM; in the assay with CCRF-CEM leukemia, 5.8 µM; in the assay on OVCAR-5 ovarian, 11 µM; in the assay on BT-549 breast it was 5.3 µM; in the assay with HCT-116 colon, 12.7 µM; in the assay with COLO 205 colon, 4.74 µM. Moreover, the TGI is 18.1 µM in the assay with SF-268 CNS, 2.83 µM in the assay with UO-31 renal, 4.24 µM in the assay with HS 578T breast and 17.6 µM in the assay on A549 NSCLC.
Take `Nc1nccc2c1ncn2C1OC(CO)C(O)C1O` (configuration not stated): the GI50 was > 100 µM in the assay on SK-MEL-2 melanoma; > 100 µM in the assay on CCRF-CEM leukemia; > 100 µM in the assay with OVCAR-5 ovarian; 88.8 µM in the assay with BT-549 breast; 39.2 µM in the assay with HCT-116 colon; > 100 µM in the assay with COLO 205 colon. In addition, the GI50 in the assay with SF-268 CNS is 83.4 µM; in the assay on UO-31 renal, 28.8 µM; in the assay on HS 578T breast, > 100 µM; in the assay on A549 NSCLC, > 100 µM. Besides, the TGI in the assay with SK-MEL-2 melanoma, in the assay with CCRF-CEM leukemia, in the assay on OVCAR-5 ovarian, with BT-549 breast, in the assay with HCT-116 colon and with COLO 205 colon was > 100 µM each time. The TGI in the assay with SF-268 CNS, in the assay with UO-31 renal, with HS 578T breast and in the assay with A549 NSCLC was > 100 µM each time.
Take `NCCCN1CCN(CCCNc2nc3ccccc3c3[nH]c4ccccc4c23)CC1`: the GI50 in the assay on SK-MEL-2 melanoma was 0.567 µM; with CCRF-CEM leukemia, 0.385 µM; in the assay with OVCAR-5 ovarian, 0.292 µM; with BT-549 breast it was 2.12 µM; in the assay with HCT-116 colon it was 0.337 µM; in the assay on COLO 205 colon, 0.214 µM. Moreover, the GI50 in the assay on SF-268 CNS is 0.316 µM; with UO-31 renal, 0.771 µM; with HS 578T breast, 0.521 µM; in the assay with A549 NSCLC, 0.323 µM. Further, the TGI in the assay on SK-MEL-2 melanoma worked out at 1.1 µM; with OVCAR-5 ovarian, 1.48 µM; with BT-549 breast it was 5.72 µM; with HCT-116 colon, 2.7 µM; with COLO 205 colon it was 1.05 µM; with SF-268 CNS, 1.94 µM. For the same molecule, the results for the TGI in the assay with UO-31 renal, with HS 578T breast and with A549 NSCLC were 11.8 µM, 2.89 µM and 2.37 µM, respectively.
Take `Cc1ccc2nc(-c3ccc(N)c4ccccc34)[nH]c2c1`: the GI50 was 0.209 µM with SK-MEL-2 melanoma; 0.0382 µM with CCRF-CEM leukemia; 0.326 µM with OVCAR-5 ovarian; 0.399 µM with BT-549 breast; 0.04 µM in the assay on HCT-116 colon; 1.07 µM with COLO 205 colon. Besides, the GI50 with UO-31 renal was 0.437 µM; with HS 578T breast, 0.263 µM; in the assay with A549 NSCLC it was 0.781 µM. The TGI in the assay with SK-MEL-2 melanoma is 24.9 µM; in the assay with CCRF-CEM leukemia, 2.1 µM; in the assay with OVCAR-5 ovarian, > 73.3 µM; in the assay on BT-549 breast, 21.1 µM; in the assay with HCT-116 colon it was 4.57 µM; with COLO 205 colon it was 6.31 µM. In addition, the TGI with SF-268 CNS is > 31.6 µM; in the assay on UO-31 renal, 36.4 µM; in the assay on HS 578T breast, 32.4 µM; in the assay with A549 NSCLC, > 46.2 µM.
In the case of `Cc1cc(C)c(S(=O)(=O)N(CCc2cccc(Br)c2)Cc2ccc(-c3cccc(S(C)(=O)=O)c3)cc2)c(C)c1`, the GI50 in the assay with SK-MEL-2 melanoma, with CCRF-CEM leukemia, in the assay with OVCAR-5 ovarian, in the assay with BT-549 breast, in the assay with HCT-116 colon and in the assay on COLO 205 colon was > 100 µM in each case. Moreover, the GI50 in the assay on SF-268 CNS, in the assay on UO-31 renal, in the assay on HS 578T breast and in the assay with A549 NSCLC was > 100 µM in each case. Besides, the TGI in the assay with SK-MEL-2 melanoma, in the assay on CCRF-CEM leukemia, in the assay with OVCAR-5 ovarian, in the assay with BT-549 breast, in the assay on HCT-116 colon and in the assay with COLO 205 colon was > 100 µM in each case. The TGI in the assay with SF-268 CNS, in the assay with UO-31 renal, in the assay with HS 578T breast and with A549 NSCLC was > 100 µM each time.
Turning to `O=C(N/N=C/c1ccc(Cl)cc1Cl)c1ccc2nc(-c3ccc(Cl)cc3)[nH]c2c1`, the GI50 with SK-MEL-2 melanoma is 2.09 µM; in the assay on CCRF-CEM leukemia, 1.43 µM; in the assay on OVCAR-5 ovarian, 1.85 µM; with BT-549 breast, 4.93 µM; with HCT-116 colon it was 1.45 µM; in the assay on COLO 205 colon, 1.55 µM. For the same molecule, the GI50 was 2.08 µM with SF-268 CNS, 1.58 µM in the assay on UO-31 renal, 2.28 µM with HS 578T breast and 2.16 µM with A549 NSCLC. Moreover, the TGI stood at 4.64 µM with SK-MEL-2 melanoma; 9.03 µM with CCRF-CEM leukemia; 3.97 µM in the assay with OVCAR-5 ovarian; 21.3 µM in the assay on BT-549 breast; 3.51 µM in the assay on HCT-116 colon; 3.25 µM in the assay with COLO 205 colon. Besides, the TGI amounted to 4.35 µM in the assay with SF-268 CNS, 2.99 µM in the assay on UO-31 renal, 5.27 µM with HS 578T breast and 4.53 µM with A549 NSCLC.
Regarding `CCOc1nccc2c1nc(-c1nonc1N)n2CC`, the GI50 with SK-MEL-2 melanoma, in the assay on CCRF-CEM leukemia, in the assay on OVCAR-5 ovarian, with BT-549 breast, in the assay on HCT-116 colon and in the assay with COLO 205 colon was > 25 µM each time. For the same molecule, the GI50 was > 25 µM in the assay with SF-268 CNS, > 18.4 µM in the assay on UO-31 renal, > 25 µM with HS 578T breast and > 25 µM with A549 NSCLC. The TGI in the assay on SK-MEL-2 melanoma, in the assay on CCRF-CEM leukemia, in the assay on OVCAR-5 ovarian, with BT-549 breast, in the assay on HCT-116 colon and in the assay on COLO 205 colon was > 25 µM each time. The TGI with SF-268 CNS, with UO-31 renal, with HS 578T breast and in the assay with A549 NSCLC was > 25 µM each time.
